target: T1, CDK2/Cyclin E complex (Homo sapiens, UniProt P24941); assay: CDK2/Cyclin E fluorescence-based microfluidic mobility shift assay (CDK2 Biochemical Caliper Assay); conditions: read-out: Biochemical CDK2/CyclinE Caliper IC50
T1 construct: purchased Eurofins 14-475
Procedure, shortened: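 Microfluidic mobility-shift readout after EDTA termination measured phosphorylation of fluorescent FL Peptide 18 (1.5 uM final) in a 20 hr room-temperature reaction. Compounds were tested at 11 concentrations (3-fold).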

IC50 [nM]	Structure (SMILES)
1000 to 100000	COCc1cc(C(=O)Nc2cc([C@H]3CC[C@H](c4nccc(C(C)C)n4)C3)[nH]n2)n(C)n1 (single isomer, unassigned) [Example 611]
≤ 100	COCc1cc2c(Nc3cc([C@H]4C[C@@H](Oc5[nH]ncc5C(C)(C)C)CO4)[nH]n3)nccn2n1 [Example 768]
≤ 100	CC(C)NC(=O)O[C@H]1CO[C@@H](c2cc(Nc3nccn4nc(CN5CCOCC5)cc34)n[nH]2)C1 [Example 669]
1000 to 100000	COCc1cc2c(Nc3cc([C@H]4C[C@@H](OC(N)=O)CO4)[nH]n3)nccn2n1 [Example 659]
≤ 100	CCOCc1cc(C(=O)Nc2cc([C@H]3C[C@@H](COC(=O)NC(C)C)C3)[nH]n2)n(C)n1 [Example 624]
≤ 100	C[C@H](NC(=O)O[C@@H]1CO[C@H](c2cc(NC(=O)c3cc(COC(F)(F)F)nn3C)n[nH]2)C1)C1CC1 [Example 780]
100 to 250	CC(C)n1cnnc1O[C@H]1CO[C@@H](c2cc(Nc3nccc4nccn34)n[nH]2)C1 [Example 749]
1000 to 100000	Clc1ccn2c(Nc3cc(C4CCCC4)[nH]n3)nnc2c1 [Example 850]
≤ 100	COCc1cc(C(=O)Nc2cc([C@H]3C[C@@H](COc4nncn4C(C)(C)C)C3)[nH]n2)n(C)n1 [Example 632]
≤ 100	COCc1cc2c(Nc3cc([C@@H]4C[C@H](OC(=O)NC5(C)CC5)CO4)[nH]n3)nccn2n1 [Example 620]
≤ 100	CC1(NC(=O)O[C@H]2CO[C@@H](c3cc(Nc4ccc5nccn5n4)n[nH]3)C2)CC1 [Example 732]
≤ 100	CC1(C)NC(=O)c2ccc(Nc3cc([C@H]4C[C@@H](OC(=O)NC56CC(C5)C6)CO4)[nH]n3)nc21 [Example 751]
≤ 100	CC(C)n1cnnc1O[C@H]1CO[C@@H](c2cc(NC(=O)c3cc(COC(F)(F)F)nn3C)n[nH]2)C1 [Example 699]
1000 to 100000	Cc1nc(Nc2cc(C3CCCC3)[nH]n2)c(C#N)c2c1CCC2 [Example 872]
≤ 100	C[C@@H](NC(=O)O[C@@H]1CO[C@H](c2cc(NC(=O)c3cc(OCC(F)F)nn3C)n[nH]2)C1)C1CC1 [Example 909]
≤ 100	COCc1cc2c(Nc3cc([C@H]4C[C@@H](OC(=O)NC5(C(F)(F)F)CC5)CO4)[nH]n3)nccn2n1 [Example 640]
100 to 250	COCc1cc2c(Nc3cc([C@H]4C[C@@H](Oc5nncn5C5(C(F)(F)F)CC5)CO4)[nH]n3)nccn2n1 [Example 741]
100 to 250	COCc1cc2c(Nc3cc([C@H]4C[C@@H](OC(=O)N[C@@H](C)C5(C)COC5)CO4)[nH]n3)nccn2n1 [Example 688]
1000 to 100000	Cc1csc2nc(Nc3cc(C4CCCC4)[nH]n3)ncc12 [Example 805]
1000 to 100000	N#CCc1c[nH]c2nccc(Nc3cc(C4CCCC4)[nH]n3)c12 [Example 798]
≤ 100	COCc1cc(C(=O)Nc2cc([C@@H]3CC[C@H](c4nccc(C(C)C)n4)C3)[nH]n2)n(C)n1 (single isomer, unassigned) [Example 610]
1000 to 100000	c1cc2c(Nc3cc(C4CCCC4)[nH]n3)ncnn2c1 [Example 861]
1000 to 100000	COc1cnc2c(Nc3cc(C4CCCC4)[nH]n3)nccc2c1 [Example 804]

More lines, now with the values behind:

Structure (SMILES)	IC50 [nM]
COCc1cc2c(Nc3cc([C@H]4C[C@@H](COc5cn[nH]c5C(C)C)C4)[nH]n3)nccn2n1 [Example 588]	≤ 100
CC(C)c1ccnnc1OC[C@H]1C[C@@H](c2cc(Nc3nccn4nccc34)n[nH]2)C1 [Example 488]	≤ 100
COCc1cc(C(=O)Nc2cc([C@@H]3CC[C@@H](c4ccc(C(C)C)cn4)C3)[nH]n2)n(C)n1 (racemic) [Example 571]	1000 to 100000
COCc1cc(C(=O)Nc2cc([C@@H]3CC[C@H](c4ccc(C(C)C)cn4)C3)[nH]n2)n(C)n1 (single isomer, unassigned) [Example 553]	1000 to 100000
CC(=O)Nc1cc([C@@H]2CC[C@H](Oc3nnccc3C(C)C)C2)[nH]n1 (single isomer, unassigned) [Example 428]	≤ 100
CC(C)NC(=O)O[C@H]1CC[C@@H](c2cc(Nc3nccc4ncsc34)n[nH]2)C1 (single isomer, unassigned) [Example 122]	≤ 100
CC(C)NC(=O)O[C@H]1CO[C@@H](c2cc(Nc3ccc4c(c3)C(C)(C)NC4=O)n[nH]2)C1 (single isomer, unassigned) [Example 549]	≤ 100
Cc1cc(CC(=O)Nc2ncc([C@H]3CC[C@@H](OC(=O)NC(C)C)C3)s2)on1 (single isomer, unassigned) [Example 442]	≤ 100
CC(C)NC(=O)O[C@@H]1CO[C@H](c2cc(Nc3nccc4ncsc34)n[nH]2)C1 [Example 434]	100 to 250
COCc1cc(C(=O)Nc2cc([C@H]3C[C@@H](OC)[C@H](OC(=O)NC(C)C)C3)[nH]n2)n(C)n1 (single isomer, unassigned) [Example 570]	1000 to 100000
CC(C)NC(=O)O[C@H]1CO[C@@H](c2cc(Nc3nccc4ncsc34)n[nH]2)C1 [Example 433]	≤ 100
COCc1cc(C(=O)Nc2cc([C@H]3CC[C@H](c4ccc(C)nn4)C3)[nH]n2)n(C)n1 (single isomer, unassigned) [Example 575]	1000 to 100000
COCc1cc(C(=O)Nc2cc([C@@H]3CC[C@H](Oc4nnccc4C4CC4)C3)[nH]n2)n(C)n1 (single isomer, unassigned) [Example 471]	≤ 100
COCc1cc(C(=O)Nc2cc([C@H]3C[C@H](CC(=O)NC(C)C)C3)[nH]n2)n(C)n1 [Example 361]	1000 to 100000
CCc1ccnnc1O[C@@H]1CC[C@H](c2cc(NC(=O)c3cc(COC)nn3C)n[nH]2)C1 (single isomer, unassigned) [Example 509]	≤ 100
CC(C)NC(=O)O[C@H]1CC[C@@H](c2cc(Nc3cncc(OCCO)n3)n[nH]2)C1 (single isomer, unassigned) [Example 564]	≤ 100
Cc1cc(CC(=O)Nc2ncn(C3CCCC3)n2)on1 [Example 61]	1000 to 100000
Cc1cc(CC(=O)Nc2cc([C@H]3C[C@@H](COc4nscc4C4CC4)C3)[nH]n2)on1 [Example 368]	≤ 100
COCc1cc2c(Nc3cc([C@H]4C[C@@H](OC(=O)N5[C@@H](C)CC[C@@H]5C)CO4)[nH]n3)nccn2n1 (single isomer, unassigned) [Example 581]	≤ 100
COCc1cc(C(=O)Nc2cc([C@H]3CC[C@@H](c4ccc(C)cn4)C3)[nH]n2)n(C)n1 (single isomer, unassigned) [Example 597]	1000 to 100000
CC(C)NC(=O)O[C@@H]1CC[C@H](c2cc(Nc3ccc4c(n3)C(C)(C)NC4=O)n[nH]2)C1 (single isomer, unassigned) [Example 527]	≤ 100

Structure (SMILES)	IC50 [nM]
c1cc2ncsc2c(Nc2cc([C@@H]3CC[C@H](Oc4nscc4C4CC4)C3)[nH]n2)n1 (single isomer, unassigned) [Example 405]	≤ 100
COCc1cc(C(=O)Nc2cc([C@H]3C[C@](C)(CC(=O)NC(C)C)C3)[nH]n2)n(C)n1 [Example 533]	1000 to 100000
COCc1cc(C(=O)Nc2cc([C@@H]3CC[C@H](Oc4cncnc4C)C3)[nH]n2)n(C)n1 (single isomer, unassigned) [Example 491]	1000 to 100000
Cc1cc(CC(=O)Nc2cc([C@@H]3CC[C@H](n4cc(C(C)C)[nH]c4=O)C3)[nH]n2)on1 (single isomer, unassigned) [Example 378]	1000 to 100000
Cc1cc(CC(=O)Nc2cc([C@@H]3CC[C@H](N4CC(C)(C)NC4=O)C3)[nH]n2)on1 (single isomer, unassigned) [Example 118]	100 to 250
CC(C)c1ccnnc1OC[C@H]1C[C@H](c2cc(Nc3nccn4nccc34)n[nH]2)C1 [Example 489]	250 to 1000
Cc1cc(CC(=O)Nc2cc([C@H]3CC[C@@H](N4CC5(CC5)NC4=O)C3)[nH]n2)on1 (single isomer, unassigned) [Example 90]	250 to 1000
Cc1cc(CC(=O)Nc2cc([C@H]3CC[C@@H](n4cc(C(C)C)[nH]c4=O)C3)[nH]n2)on1 (single isomer, unassigned) [Example 93]	1000 to 100000
COCc1cc2c(Nc3cc([C@H]4C[C@@H](Oc5nnccc5C(C)C)CO4)[nH]n3)nccn2n1 [Example 496]	≤ 100
CC(C)NC(=O)O[C@H]1CC[C@@H](c2cc(Nc3ccsn3)n[nH]2)C1 (single isomer, unassigned) [Example 113]	1000 to 100000
Cc1ncccc1O[C@H]1CC[C@@H](c2cc(Nc3ccc4c(c3)C(C)(C)NC4=O)n[nH]2)C1 (single isomer, unassigned) [Example 547]	≤ 100
Cc1cc(CC(=O)Nc2cc([C@@H]3CC[C@@H](O)C3)[nH]n2)on1 (single isomer, unassigned) [Example 376]	1000 to 100000
COCc1cc(C(=O)Nc2cc([C@H]3CC[C@@H](Oc4nscc4C4CC4)C3)[nH]n2)n(C)n1 (single isomer, unassigned) [Example 414]	≤ 100
Cc1cc(CC(=O)Nc2cc([C@H]3CC[C@H](Cc4nncn4C(C)C)C3)[nH]n2)on1 (single isomer, unassigned) [Example 373]	100 to 250
CCS(=O)(=O)N[C@H]1CC[C@@H](c2cc(NC(=O)Cc3cc(C)no3)n[nH]2)C1 (single isomer, unassigned) [Example 134]	1000 to 100000
COCc1cc(C(=O)Nc2cc([C@H]3CC[C@@H](Oc4cncc(C)c4)C3)[nH]n2)n(C)n1 (single isomer, unassigned) [Example 383]	1000 to 100000
CC(C)NC(=O)OC[C@H]1C[C@@H](c2cc(Nc3nccc4ncsc34)n[nH]2)C1 [Example 456]	≤ 100
Cc1cc(CC(=O)Nc2cc([C@H]3C[C@@H](Oc4nnccc4C(C)C)CO3)[nH]n2)on1 [Example 406]	≤ 100
Cc1cc(CC(=O)Nc2cc(C3CCCN3)[nH]n2)on1 (centres unmarked) [Example 416]	1000 to 100000
Cc1cc(CC(=O)Nc2cc(C3CCCC3)[nH]n2)on1 [Example 66]	1000 to 100000
COCc1cc(C(=O)Nc2cc([C@@H]3CC[C@H](Oc4ncccc4C(C)C)C3)[nH]n2)n(C)n1 (single isomer, unassigned) [Example 507]	≤ 100
